{"source": "patent US20070245431A1", "about": "“POLYUNSATURATED FATTY ACID PRODUCTION IN HETEROLOGOUS ORGANISMS USING PUFA POLYKETIDE SYNTHASE SYSTEMS” (priority 2006, published 2007)", "molecules": {"B1": {"name": "DAGAT: Schizochytrium diacylglycerol acyltransferase, SEQ ID NO:100/101 (protein, listed as Schizochytrium sp.)", "chain": "MERPQAQASPARSEARRRRGDRSKGFADEDGETSVNTPNGMQTPYSTSMGSVSSYSSSGDYAMSEAEGSEVDPADDRMGDSIGSKPSSSSVTGRRRLTQEERDYFLRLEKEWREEDAWADQPGSWYSMLAWMPVLIGLRVFNVLLSIAFWPVSFVARVFFGKKIHTVSFWDVPLSRRKQTAVVLLFVMLLPMVVVVYSWTLVLLLFPLTTFPTLCYMVWIIYVDKSPETGSRRPFLRYWKMWRHFANYFPLRLIRTTPLDSRRKYVFCYHPHGIISLGAFGNFATDSTGFSRKFPGIDLRVLTLALNFYCPLLREFLLYLGLCSAAKKSCNQILQRGPGSAIMLVVGGAAESLDSQPGTYRLTLGRKGFVRVALDNGADLVPVLAFGENDVFDTVYLPPNSWARNVQEFVRKKLGFATPIFSGRGIFQYNMGLMPHRRPIIVVVGKPIKMPKIPDELKGRALSTTAEGVALVDKYHEKYVKALRELWNLYKERWAVHRQGSLLIQK"}}, "key": {"yeast": {"tested_on": "yeast", "experiment": "Fatty acid profile (GC of FAMEs) of yeast strains grown without or with cerulenin (FAS inhibition)", "format": "cell-based, Saccharomyces cerevisiae", "source_text": "The present inventors tested the effects of cerulenin on fatty acid profiles of the strains of yeast described in Example 8 as a model of the concept of reduction of FAS activity. The yeast described in Example 9, which also contained an acyl CoA-synthetase, were additionally tested in this system, to determine whether the effects of the two strategies would additively or synergistically increase PUFA production.\nInitial experiments indicated the maximum effect (i.e., as an increase in PUFAs as a percentage of the total fatty acid profile) was obtained at a concentration of 4 uM cerulenin. The cerulenin was added 4 hours after transfer to the galactose induction medium. Cells were harvested 19 hr after transfer to induction medium, freeze dried, FAMES prepared and analyzed by GC.\nThe yeast strains tested were: • Strain 5.5 contained the PUFA synthase genes (sOrfA, sOrfB, OrfC and Het I), as described in Example 8 above; and • Strain 5.6 contained the PUFA synthase gene set of Strain 5.5, plus the ScACoAS-1 (SEQ ID NO:82), as described in Example 9 above.\nReferring to Table 2, “0 Cer” indicates cerulenin was not added, and “4 uM Cer” indicates the media was made to 4 uM cerulenin 4 hours after transfer to the induction medium). Each strain was evaluated for fatty acid production in the presence and absence of the cerulenin, to evaluate the effect of the inhibition of the FAS pathway on PUFA production. […] The values are given as a percentage of the total fatty acids detected. DHA and DPAn-6, which are the products of the Schizochytrium PUFA PKS system, were the only PUFAs present in the profiles. FIGS. 9 and 10 illustrate the amount of DHA (FIG. 9) or DHA and DPAn-6 (FIG. 10; white bars are DHA; black bars are DHA+DPAn-6) produced by the yeast, as a percentage of total FAME."}, "acyl-CoA synthetases": {"tested_on": "acyl-CoA synthetases", "experiment": "In vitro activity assay of Schizochytrium FAS-KO cell free homogenate with Triacsin C (HIP extraction, normal phase TLC)", "format": "biochemical", "conditions": "Triacsin C 0, 25, 100 or 200 uM, 10 minutes, then ATP and Mg+2, additional 20 minutes; effect at higher concentrations", "experimental": "An example of a protocol for preparation of cell free homogenates (CFH) from the cell wall deficient strains of Schizochytrium is as follows. Cells were grown in A50-3 medium and then diluted into M2B medium. The media used for growing the KO strains were supplemented with the appropriate fatty acid. Cells were grown to an OD600 nm of >˜2.5 and <˜5 in the M2B media. Cells in 50 mL of culture medium were collected by centrifugation (table top centrifuge—˜1200 rpm×4 minutes) in 50 mL plastic tubes. The supernatant was decanted and the cells resuspended 5 mL Buffer A (100 mM Phosphate pH 7.2, 10% (w/v) glycerol, 1 mM EDTA and 2 mM DTT) and centrifuged as before. The supernatant was discarded and the cells resuspended in ice cold 5 mL Buffer A. The suspension was sonicated (Ultrasonic Processor Model GE130 with microtip, Pulser at 2 seconds, ˜1 Watt power setting) with tube on ice for 1.5 minutes. The sample was checked by microscopy to ensure that all of the cells were broken. The CFH was aliquoted in 200 uL portions into 0.5 mL PCR tubes with caps and frozen by dropping into liquid N2. Samples were stored at −74° C. until needed.\nAn example of a protocol for in vitro activity assays of both FAS and PUFA synthase activities is as follows. […]"}, "Schizochytrium": {"tested_on": "Schizochytrium", "experiment": "Knock out of the DAGAT gene in Schizochytrium, lipid profile", "format": "cell-based", "conditions": "inactivation of the DAGAT gene in Schizochytrium"}}, "data": [{"molecule": "C/C=C/C/C=C/CCC(=O)[C@H]1O[C@H]1C(N)=O", "note": "[cerulenin]", "values": [{"measurement": "DHA level, of total fatty acids", "setting": "yeast; cells expressing both the PUFA synthase and ScACoAS-1 genes grown in 4 uM cerulenin (4.1% without)", "result": 8.2, "unit": "%"}, {"measurement": "DHA level", "setting": "yeast; cells with just the PUFA synthase system grown in 4 uM cerulenin (1.2% without)", "result": 3.7, "unit": "%"}, {"measurement": "concentration giving the maximum effect (increase in PUFAs as a percentage of the total fatty acid profile)", "setting": "yeast; initial experiments", "result": 4, "unit": "µM"}]}, {"molecule": "CCC/C=C/C/C=C/C=C/C=N/NN=O", "note": "[Triacsin C]", "values": [{"measurement": "loss of radiolabel from the FFA band", "setting": "acyl-CoA synthetases", "result": "blocked the loss of radiolabel from the FFA band"}]}, {"molecule": "B1", "values": [{"measurement": "reduction in TAG", "setting": "Schizochytrium", "result": "~90", "unit": "%"}, {"measurement": "reduction in mg FAME/gm biomass", "setting": "Schizochytrium", "result": "~80", "unit": "%"}]}]}
